{"source": "patent US11839207B1", "about": "“Essential oil-containing formulation for insecticide use, fertilizer application, and/or fertilizer coating” (priority 2019, dated 2023)", "type_in_all_cases": "in vivo", "key": {"[1]": {"test_system": "Aedes", "assay": "Arm-in-cage (AIC) repellency test, Aedes", "details": "1 ml per 600 cm^2 on forearm", "experimental": "(§1) Additional testing was conducted comparing the inventive formulation to DEET for the purposes of comparing insect repellency. In many insect repellency studies, there is often a lack of side-by-side comparisons for two or more insect repellents. The study conducted in connection with the inventive formulation sought to address this problem by directly comparing the two insect repellents based on the same active contents, i.e., 15% by weight. The study was conducted using both field testing and laboratory conditions. The tested formulation included ethanolic solutions of 15% DEET (m/m) and 15% of the inventive formulation, and the composition tested corresponded to the target composition described above. […] Under laboratory conditions, the efficacy of mosquito repellents is typically evaluated in the so-called “arm-in-cage” (AIC) test. […] In the field, similar endpoints may be determined on the basis of mosquitoes landing or biting on an exposed skin area, usually the lower leg, while the mosquitoes are collected by aspiration allowing for the identification of the mosquito species in a laboratory. […] In the AIC test the protection time of a repellent is assessed by exposing a treated forearm to hungry mosquitoes at regular intervals (grown from larvae and not fed for 12 hours before the test). The cages measured 16″×16″×14″ and were made of clear glass with an opening on the front side. […]"}, "[2]": {"test_system": "Anopheles", "assay": "Arm-in-cage (AIC) repellency test, Anopheles", "details": "1 ml per 600 cm^2 on forearm", "experimental": "as §1"}, "[3]": {"test_system": "mosquitoes", "assay": "Field repellency test, human landing catch (HLC) method", "details": "relative protection percentages shown in the FIGURE", "experimental": "Additional testing was conducted comparing the inventive formulation to DEET for the purposes of comparing insect repellency. In many insect repellency studies, there is often a lack of side-by-side comparisons for two or more insect repellents. The study conducted in connection with the inventive formulation sought to address this problem by directly comparing the two insect repellents based on the same active contents, i.e., 15% by weight. The study was conducted using both field testing and laboratory conditions. […] Under laboratory conditions, the efficacy of mosquito repellents is typically evaluated in the so-called “arm-in-cage” (AIC) test. […] In the field, similar endpoints may be determined on the basis of mosquitoes landing or biting on an exposed skin area, usually the lower leg, while the mosquitoes are collected by aspiration allowing for the identification of the mosquito species in a laboratory. […] The application volume was estimated on the basis of the surface area, calculated as the average of the circumferences just below the knee, the calf and the ankle, multiplied by the length of the lower leg, measured from below the knee to the ankle. […] Raw data was recorded on paper forms. […] The endpoint measured in the experiments was the number of mosquitoes landing on the bare skin during each exposure period. […]"}, "[4]": {"test_system": "Culex", "assay": "Arm-in-cage (AIC) repellency test, Culex", "details": "1 ml per 600 cm^2 on forearm", "experimental": "as §1"}}, "data": [{"compound": "CCN(CC)C(=O)c1cccc(C)c1", "note": "[15% DEET, DEET]", "values": [{"measurement": "median CPT (complete protection time) in the AIC tests", "setting": "[1]", "result": 0.5, "unit": "h"}, {"measurement": "median CPT (complete protection time) in the AIC tests", "setting": "[2]", "result": 2, "unit": "h"}, {"measurement": "efficacy in comparative study between AIC test and HLC method in the field", "setting": "[3]", "result": "comparable efficacy"}, {"measurement": "median CPT (complete protection time) in the AIC tests", "setting": "[4]", "result": 2, "unit": "h"}]}]}
